The subject of the test is PD-1/PD-L1 blockade, Jurkat effector cells / CHO/TCRAct/PD-L1 cells. As to the kind of experiment: Immune checkpoint blockade (ICB) assay (Promega): Jurkat ECs co-cultured with CHO/TCRAct/PD-L1 cells, NFAT luciferase readout. Type of test: cell-based, human. As to conditions: for Activation of Jurkat ECs compared with BMS-1166: 5 µM, p < 0.001 vs BMS-1166; for Activation of Jurkat ECs in the ICB assay: 6 h co-culture, fold induction vs control; for Promega Assay (active / not active): cell-based PD-1/PD-L1 blockade bioassay. On the procedure:
In order to explore the bioactivity of the synthesized compounds, a well-recognized immune checkpoint blockade (ICB) assay was performed. In the assay, artificial T cells, the Jurkat effector cells (Jurkat ECs), i.e., the Jurkat T cells overexpressing PD-1 and luciferase-coding gene under the control of the TCR-inducible NFAT response element, are contacted with artificial antigen-presenting CHO/TCRAct/PD-L1 cells, as illustrated in [31]. The latter is the CHO cells equipped with the TCR activator molecule, which delivers activation of Jurkat ECs, and also the PD-L1 protein, which provides a negative signal towards the activation of Jurkat ECs. Upon the blockade of the PD-1/PD-L1 interaction, activation of Jurkat ECs is increased, as we have shown before for several classes of therapeutic antibodies and small molecules.
The human PD-L1-expressing CHO-K1 cells overexpressing TCR activator (CHO/TCRAct/PD-L1) cells and Jurkat ECs T cells overexpressing PD-1 and carrying a luciferase reporter gene under the control of the Nuclear Factor of Activated T cells Response Element (NFAT-RE) were obtained from Promega and cultured in an RPMI-1640 medium (Biowest, Nuaillé, France) supplemented with 10% fetal bovine serum (FBS, Biowest, Nuaillé, France) and […] L-glutamine (Biowest, Nuaillé, France). G418 (250 µg/mL, InvivoGen, San Diego, CA, USA) and Hygromycin B Gold (50 µg/mL, InvivoGen, San Diego, CA, USA) were also added to the culture medium as selection antibiotics. CAKI 2, LNCap, PC-3, and MDA-MB-231 cells were purchased from the European Collection of Authenticated Cell Cultures (ECACC) and cultured according to the provided protocol.
For the analysis of biological activity of the analyzed compounds, an immune checkpoint blockade (ICB) assay was performed. For this, the culture of Jurkat effector cells (Jurkat-ECs) and […] was carried out. The assay was performed according to the protocol described in our previous works. All the experiments were performed three times as independent experiments.
Figure 2 Bioactivity of the indicated compounds. (A,B) The activity was monitored with a cell-based immune checkpoint blockade (ICB) assay. Jurkat ECs were contacted with pre-seeded CHO/TCRAct/PD-L1 cells in the presence of the indicated concentrations of the compounds (A) or durvalumab (B) as a positive control. The cells were co-cultured for 6 h and the luminescence signal was measured following the addition of the Bio-Glo substrate. The graphs show fold induction calculated versus either DMSO-treated (for small molecules) or untreated (for durvalumab) control (ctrl) cells. The results are mean ± SD from three independent experiments. […] (C) Analysis of the expression of PD-L1 in four human cancer cell lines compared to PD-L1-overexpressing CHO/TCRAct/PD-L1 cells. (D) Analysis of the expression of PD-L1 in MDA-MB-231 cells treated with either 4 or 5 compounds for 6 or 24 h.

“Also recorded” adds a separate entry of the source.

Consider `COc1nc(OCc2cccc(-c3ccccc3)c2C)ccc1CNCC1CCN(CC(=O)Nc2cccc3c2C(=O)N(C2CCC(=O)NC2=O)C3=O)CC1` (stereo not drawn) [compound 4, N-(2-(2,6-dioxopiperidin-3-yl)-1,3-dioxoisoindolin-4-yl)-2-(4-((((2-methoxy-6-((2-methyl-[1,1′-biphenyl]-3-yl)methoxy)pyridin-3-yl)methyl)amino)methyl)piperidin-1-yl)acetamide], for which the “Activation of Jurkat ECs compared with BMS-1166” value was “significantly higher levels of the activation of Jurkat ECs”, the “Activation of Jurkat ECs in the ICB assay” value was “able to increase the activation of Jurkat ECs; also recorded: significantly restore the repressed immunity” and the “Promega Assay (active / not active)” value is “Active”.
In the same order, the values of `COc1nc(OCc2cccc(-c3ccccc3)c2C)ccc1CNCCCNc1cccc2c1C(=O)N(C1CCC(=O)NC1=O)C2=O` (stereo not drawn) [compound 5, 2-(2,6-dioxopiperidin-3-yl)-4-((3-(((2-methoxy-6-((2-methyl-[1,1′-biphenyl]-3-yl)methoxy)pyridin-3-yl)methyl)amino)propyl)amino)isoindoline-1,3-dione] are “significantly higher levels of the activation of Jurkat ECs”, “able to increase the activation of Jurkat ECs; also recorded: significantly restore the repressed immunity” and “Active”.

The values are drawn from article PMC9181982, “Biphenyl Ether Analogs Containing Pomalidomide as Small-Molecule Inhibitors of the Programmed Cell Death-1/Programmed Cell Death-Ligand 1 Interaction” (Molecules, 2022).
